Measurements published in US4656166A, “Antibiotic compounds derived from cephalosporins, process for their production and pharmaceutical compositions” (Sanofi, priority 1983, dated 1987).
≈ marks a conversion by molar mass, not a printed value.

Key:
Type in all cases: cell-based
Escherichia coli SOL 90 = test: MIC, in vitro dilution method, Escherichia coli SOL 90 (Table III); details: SOL90; Escherichia coli SOL 90; dilution method; read-out: MIC
Procedure, shortened: (§1)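 In vitro dilution method, Gram-negative strain panel; read-out = minimum inhibiting concentration, μg/ml.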

Citrobacter RL 49 = test: MIC, in vitro dilution method, Citrobacter RL 49 (Table III); details: RL49; Citrobacter RL 49; dilution method; read-out: MIC
Excerpt: (§2) The products of the invention have been studied as regards their pharmacological properties and, more especially, bacteriostatic action. This has been determined in vitro by the dilution method, and the study was on Gram negative strains.
(§3) Results, expressed in minimum inhibiting concentrations (MIC-- μg/ml), are collected in the following table (Table III).

[1] = system: Proteus vulgaris RL 99 bis; test: MIC, in vitro dilution method, Proteus vulgaris RL 99 bis (Table III); details: RL99BIS; Proteus vulgaris RL 99 bis; dilution method; read-out: MIC
Excerpt: as §2, §3

Serratia RL 72 = test: MIC, in vitro dilution method, Serratia RL 72 (Table III); details: RL72
Excerpt: as §2, §3

Klebsiella RO 30 = test: MIC, in vitro dilution method, Klebsiella RO 30 (Table III); details: RO30; Klebsiella RO 30; dilution method; read-out: MIC
Procedure, shortened: as §1

Enterobacter RO 154 = test: MIC, in vitro dilution method, Enterobacter RO 154 (Table III); details: RO154; Enterobacter RO 154; dilution method; read-out: MIC
Procedure, shortened: as §1

Pseudomonas RL 112 = test: MIC, in vitro dilution method, Pseudomonas RL 112 (Table III); details: RL112
Procedure, shortened: as §1

SMILES	MIC (Escherichia coli SOL 90)	MIC (Citrobacter RL 49)	MIC [1]	MIC (Serratia RL 72)	MIC (Klebsiella RO 30)	MIC (Enterobacter RO 154)	MIC (Pseudomonas RL 112)
CC(O/N=C(\C(=O)NC1C(=O)N2C(C(=O)O)=C(COC(=O)CCCCN)C[S+]([O-])C12)c1csc(N)n1)C(=O)O (centres unmarked) [42 214]	≤ 0.12 µg/mL	≤ 0.12 µg/mL	≤ 0.12 µg/mL	0.5 µg/mL (≈ 0.852 µM)	≤ 0.12 µg/mL	≤ 0.12 µg/mL	16 µg/mL (≈ 27.3 µM)
Nc1nc(/C(=N/OC2(C(=O)O)CCC2)C(=O)NC2C(=O)N3C(C(=O)O)=C(COC(=O)CC4CCCCN4)C[S+]([O-])C23)cs1 (centres unmarked) [42 471]	0.5 µg/mL (≈ 0.783 µM)	0.25 µg/mL (≈ 0.391 µM)	≤ 0.125 µg/mL	0.5 µg/mL (≈ 0.783 µM)	0.25 µg/mL (≈ 0.391 µM)	0.25 µg/mL (≈ 0.391 µM)	8 µg/mL (≈ 12.5 µM)
NCc1cccc(C(=O)SCC2=C(C(=O)O)N3C(=O)C(NC(=O)C(=NOC4(C(=O)O)CCC4)c4csc(N)n4)C3[S+]([O-])C2)c1 (centres unmarked) [compound 42532]	0.5 µg/mL (≈ 0.754 µM)	0.25 µg/mL (≈ 0.377 µM)	≤ 0.125 µg/mL	1 µg/mL (≈ 1.51 µM)	0.25 µg/mL (≈ 0.377 µM)	0.5 µg/mL (≈ 0.754 µM)	8 µg/mL (≈ 12.1 µM)
COc1cc(C(=O)OCC2=C(C(=O)O)N3C(=O)C(NC(=O)/C(=N\OC(C)(C)C(=O)O)c4csc(N)n4)C3[S+]([O-])C2)ccc1CN (centres unmarked) [42 461]	0.25 µg/mL (≈ 0.376 µM)	≤ 0.125 µg/mL	≤ 0.125 µg/mL	2 µg/mL (≈ 3.01 µM)	≤ 0.125 µg/mL	≤ 0.125 µg/mL	8 µg/mL (≈ 12 µM)
CC(ON=C(C(=O)NC1C(=O)N2C(C(=O)O)=C(CSC(=O)c3ccc(CN)cc3)C[S+]([O-])C12)c1csc(N)n1)C(=O)O (centres unmarked) [compound 42221]	0.25 µg/mL (≈ 0.393 µM)	≤ 0.12 µg/mL	≤ 0.12 µg/mL	2 µg/mL (≈ 3.14 µM)	≤ 0.12 µg/mL	0.25 µg/mL (≈ 0.393 µM)	64 µg/mL (≈ 101 µM)
CNCc1ccc(C(=O)OCC2=C(C(=O)O)N3C(=O)C(NC(=O)/C(=N\OC4(C(=O)O)CCC4)c4csc(N)n4)C3[S+]([O-])C2)cc1 (centres unmarked) [42 464]	≤ 0.125 µg/mL	≤ 0.125 µg/mL	≤ 0.125 µg/mL	0.5 µg/mL (≈ 0.757 µM)	≤ 0.125 µg/mL	≤ 0.125 µg/mL	4 µg/mL (≈ 6.05 µM)
Nc1nc(C(=NOC2(C(=O)O)CCC2)C(=O)NC2C(=O)N3C(C(=O)O)=C(CSC(=O)C4CCNCC4)C[S+]([O-])C23)cs1 (centres unmarked) [compound 42219]	0.5 µg/mL (≈ 0.78 µM)	≤ 0.12 µg/mL	≤ 0.12 µg/mL	1 µg/mL (≈ 1.56 µM)	0.5 µg/mL (≈ 0.78 µM)	0.5 µg/mL (≈ 0.78 µM)	4 µg/mL (≈ 6.24 µM)
Cc1ccc(CN)c(C)c1C(=O)OCC1=C(C(=O)O)N2C(=O)C(NC(=O)C(=NOC3(C(=O)O)CCC3)c3csc(N)n3)C2[S+]([O-])C1 (centres unmarked) [42 541]	0.5 µg/mL (≈ 0.741 µM)	0.25 µg/mL (≈ 0.371 µM)	≤ 0.125 µg/mL	0.5 µg/mL (≈ 0.741 µM)	≤ 0.125 µg/mL	0.25 µg/mL (≈ 0.371 µM)	4 µg/mL (≈ 5.93 µM)
CC(C)(O/N=C(\C(=O)NC1C(=O)N2C(C(=O)O)=C(COC(=O)c3cccc(NC(=O)CN)c3)C[S+]([O-])C12)c1csc(N)n1)C(=O)O (centres unmarked) [42 374]	0.5 µg/mL (≈ 0.738 µM)	0.25 µg/mL (≈ 0.369 µM)	≤ 0.125 µg/mL	1 µg/mL (≈ 1.48 µM)	0.25 µg/mL (≈ 0.369 µM)	0.25 µg/mL (≈ 0.369 µM)	4 µg/mL (≈ 5.9 µM)
NCc1ccc(C(=O)SCC2=C(C(=O)O)N3C(=O)C(NC(=O)C(=NOC4(C(=O)O)CCC4)c4csc(N)n4)C3[S+]([O-])C2)cc1 (centres unmarked) [compound 42222]	0.5 µg/mL (≈ 0.754 µM)	≤ 0.12 µg/mL	≤ 0.12 µg/mL	1 µg/mL (≈ 1.51 µM)	0.5 µg/mL (≈ 0.754 µM)	0.5 µg/mL (≈ 0.754 µM)	8 µg/mL (≈ 12.1 µM)
CC(O/N=C(\C(=O)NC1C(=O)N2C(C(=O)O)=C(COC(=O)c3ccc(CN)cc3)C[S+]([O-])C12)c1csc(N)n1)C(=O)O (centres unmarked) [42 216]	≤ 0.12 µg/mL	≤ 0.12 µg/mL	≤ 0.12 µg/mL	0.5 µg/mL (≈ 0.806 µM)	≤ 0.12 µg/mL	≤ 0.12 µg/mL	8 µg/mL (≈ 12.9 µM)
